These results are taken from patent publication US8822449B2, “Substituted aminoindanes and analogs thereof, and the pharmaceutical use thereof” (Sanofi, priority 2008, dated 2014).

In this test the target is T1, sodium-proton exchanger of subtype 3 (NHE3) (Homo sapiens, UniProt P48764).
T1 construct: expressed in transfected cells
T1 sequence (P48764 26-834): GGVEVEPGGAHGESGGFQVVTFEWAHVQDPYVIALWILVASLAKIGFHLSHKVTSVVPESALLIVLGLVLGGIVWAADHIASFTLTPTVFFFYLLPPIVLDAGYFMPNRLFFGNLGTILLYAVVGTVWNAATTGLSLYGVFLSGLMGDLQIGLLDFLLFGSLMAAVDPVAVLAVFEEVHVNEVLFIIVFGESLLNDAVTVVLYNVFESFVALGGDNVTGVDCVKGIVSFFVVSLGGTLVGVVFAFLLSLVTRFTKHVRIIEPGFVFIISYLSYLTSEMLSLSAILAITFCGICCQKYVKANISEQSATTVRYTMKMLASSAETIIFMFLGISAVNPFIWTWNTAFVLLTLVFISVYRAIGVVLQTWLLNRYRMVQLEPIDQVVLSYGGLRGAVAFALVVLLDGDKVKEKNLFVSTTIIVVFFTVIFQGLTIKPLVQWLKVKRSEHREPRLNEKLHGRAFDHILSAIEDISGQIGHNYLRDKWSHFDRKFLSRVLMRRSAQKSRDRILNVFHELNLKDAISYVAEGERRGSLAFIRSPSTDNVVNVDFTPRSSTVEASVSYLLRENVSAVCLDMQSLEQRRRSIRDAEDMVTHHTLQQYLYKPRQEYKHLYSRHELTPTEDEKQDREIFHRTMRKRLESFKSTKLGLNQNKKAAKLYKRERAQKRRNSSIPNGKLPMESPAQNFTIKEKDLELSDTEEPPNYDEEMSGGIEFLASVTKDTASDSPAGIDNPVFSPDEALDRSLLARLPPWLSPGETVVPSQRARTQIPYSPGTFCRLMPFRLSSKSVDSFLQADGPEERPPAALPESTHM
The test is described as follows: Recovery of intracellular pH (pHi) after acidification in LAP1 cells stably expressing NHE3 (BCECF fluorescence, FLIPR). The settings on record: LAP1 cells stably expressing NHE3; pH recovery after acidification; range 1 is % inhibition at 10 μM; read-out: Activity range (inhibitory effect on NHE3). Format: cell-based.

The structures appear in SMILES notation. pIC50: −log10 of the molar value.

Consider `CC(=O)Nc1ccc(OC2c3ccccc3CC2N2CCCC2)cc1` (racemic) [Example 666, N-[4-(rac-trans-(1,2)-2-pyrrolidin-1-ylindan-1-yloxy)phenyl]acetamide], for which the pIC50 was 5.00 to 6.00.

As for `COC(=O)c1ccc(O[C@H]2c3cc(Cl)cc(Cl)c3C[C@@H]2N2CC[C@@H](O)C2)c(F)c1` [Example 553, 4-[trans-(1S,2S)-4,6-dichloro-2-((R)-3-hydroxypyrrolidin-1-yl)indan-1-yloxy]-3-fluorobenzoic acid methyl ester], the pIC50 was 5.00 to 6.00.

As to `CS(=O)(=O)c1ccc(O[C@H]2c3cc(Cl)cc(Cl)c3C[C@@H]2N2CCC3(CCNC3)C2)cc1` (mixture of isomers) [Example 378, 2-[trans-(1S,2S)-4,6-dichloro-1-(4-methanesulfonylphenoxy)indan-2-yl]-2,7-diaza-spiro[4.4]nonane], the pIC50 is greater than 6.00.

For `NC(=O)Nc1cccc(O[C@@H]2c3ccccc3C[C@H]2N2CCC(N)C2)c1` (mixture of isomers) [Example 234, {3-[rac-trans-(1,2)-2-(3-aminopyrrolidin-1-yl)indan-1-yloxy]phenyl}urea], the pIC50 is 5.00 to 6.00.

As for `CC(=O)Nc1cccc(O[C@H]2c3cccc(Cl)c3C[C@@H]2N2CCCC2)c1` (racemic) [Example 649, N-[3-(rac-trans-(1,2)-4-chloro-2-pyrrolidin-1-ylindan-1-yloxy)phenyl]acetamide], the inhibition at 10 µM lay in the range of 20 to 50%.

As for `O=C1CNC(=O)N1c1ccc(F)c(O[C@H]2c3cc(Cl)cc(Cl)c3C[C@@H]2N2CC[C@@H](O)C2)c1` [Example 417, 3-{3-[(1S,2S)-4,6-dichloro-2-((R)-3-hydroxypyrrolidin-1-yl)indan-1-yloxy]-4-fluorophenyl}imidazolidine-2,4-dione], the pIC50 is 5.00 to 6.00.

Take `COCCN(C)[C@H]1Cc2c(Cl)cc(Cl)cc2[C@@H]1Oc1ccc(-n2c(C)nnc2C)cc1` [Example 243, {trans-(1S,2S)-4,6-dichloro-1-[4-(3,5-dimethyl-[1,2,4]triazol-4-yl)phenoxy]indan-2-yl}-(2-methoxyethyl)-methylamine]: the pIC50 was greater than 6.00.

Take `Cc1nc2cc(O[C@H]3c4cc(Cl)cc(Cl)c4C[C@@H]3N3CC[C@@H](O)C3)ccc2s1` [Example 96, (R)-1-[trans-(1S,2S)-4,6-dichloro-1-(2-methylbenzothiazol-5-yloxy)indan-2-yl]pyrrolidin-3-ol]: the inhibition at 10 µM was in the range of 20 to 50%.

On to `Cc1cc(O[C@H]2c3ccccc3CC[C@@H]2N2CCC[C@@H](N)C2)ccc1Cl` (racemic) [Example 65, (R)-1-[rac-trans-(1,2)-1-(4-chloro-3-methylphenoxy)-1,2,3,4-tetrahydronaphthalen-2-yl]piperidin-3-ylamine], for which the inhibition at 10 µM fell in the range of 20 to 50%.

As to `Cc1nnc(C)n1-c1ccc(O[C@@H]2c3ccccc3C[C@@]2(C)N2CCCC2)c(F)c1` (racemic) [Example 494, 4-[3-fluoro-4-(-2-methyl-2-pyrrolidin-1-ylindan-1-yloxy)phenyl]-3,5-dimethyl-4H-[1,2,4]triazole], the pIC50 was 5.00 to 6.00.

Take `Nc1ccc2c(O[C@H]3c4ccccc4CC[C@@H]3N3CCC[C@H](N)C3)cccc2c1` (racemic) [Example 189, (S)-1-[rac-trans-(1,2)-1-(6-aminonaphthalen-1-yloxy)-1,2,3,4-tetrahydronaphthalen-2-yl]piperidin-3-ylamine]: the pIC50 was 5.00 to 6.00.

Turning to `Cc1nnc(C)n1-c1ccc(O[C@H]2c3cc(Cl)ccc3C[C@@H]2N2CC[C@@H](F)C2)c(F)c1` [Example 563, 4-{4-[trans-(1S,2S)-6-chloro-2-((R)-3-fluoropyrrolidin-1-yl)indan-1-yloxy]-3-fluorophenyl}-3,5-dimethyl-4H-[1,2,4]triazole], the pIC50 is greater than 6.00.

Turning to `CS(=O)(=O)c1ccc(OC2c3ccccc3CC2N2CCCC2)c(Cl)c1` (racemic) [Example 265, 1-[rac-trans-(1,2)-1-(2-chloro-4-methanesulfonylphenoxy)indan-2-yl]pyrrolidine], the pIC50 was greater than 6.00.

Turning to `Cc1nnc(C)n1-c1ccc(O[C@H]2c3cc(Cl)ccc3C[C@@H]2N2CCS(=O)(=O)CC2)c(Cl)c1` [Example 567, 4-{trans-(1S,2S)-6-chloro-1-[2-chloro-4-(3,5-dimethyl-[1,2,4]triazol-4-yl)phenoxy]indan-2-yl}thiomorpholine 1,1-dioxide], the pIC50 is 5.00 to 6.00.

`CS(=O)(=O)c1ccc(O[C@H]2c3cc(Cl)cc(F)c3C[C@@H]2N2CCCC2)cc1` (racemic) [Example 293, 1-[rac-trans-(1,2)-6-chloro-4-fluoro-1-(4-methanesulfonylphenoxy)indan-2-yl]pyrrolidine]: the pIC50 was 5.00 to 6.00.

Consider `COc1cccc(F)c1O[C@@H]1c2ccccc2C[C@H]1N1CCC(CN)C1` (mixture of isomers) [Example 605, C-{1-[rac-trans-(1,2)-1-(2-fluoro-6-methoxyphenoxy)indan-2-yl]pyrrolidin-3-yl}methylamine], for which the pIC50 was 5.00 to 6.00.

`Cc1cc(O[C@H]2c3cc(Cl)cc(F)c3C[C@@H]2N2CCCC2)ccc1S(C)(=O)=O` (racemic) [Example 291, 1-[rac-trans-(1,2)-6-chloro-4-fluoro-1-(4-methanesulfonyl-3-methylphenoxy)indan-2-yl]pyrrolidine]: the pIC50 is 5.00 to 6.00.

`Cc1nc2cc(O[C@@H]3c4ccccc4C[C@H]3N3C[C@H]4CNC[C@H]4C3)ccc2s1` (racemic) [Example 576, 5-[rac-trans-(1,2)-2-(hexahydropyrrolo[3,4-c]pyrrol-2-yl)indan-1-yloxy]-2-methylbenzothiazole]: the pIC50 was 5.00 to 6.00.

For `CCOc1cccc(O[C@@H]2c3ccccc3C[C@H]2N2CCC(CN)CC2)c1` (racemic) [Example 614, C-{1-[rac-trans-(1,2)-1-(3-ethoxyphenoxy)indan-2-yl]piperidin-4-yl}methylamine], the pIC50 is 5.00 to 6.00.

Take `Cc1nnc(C)n1-c1ccc(F)c(O[C@H]2c3cc(Cl)cc(Cl)c3C[C@@H]2N2CC[C@@H](O)C2)c1` [Example 114, (R)-1-{(1S,2S)-4,6-dichloro-1-[5-(3,5-dimethyl-[1,2,4]triazol-4-yl)-2-fluorophenoxy]indan-2-yl}pyrrolidin-3-ol]: the pIC50 was 5.00 to 6.00.

For the molecule `CO[C@@H]1CCN(C2Cc3ccccc3C2Oc2cccc(NC(C)=O)c2)C1` (mixture of isomers) [Example 682, N-{3-[rac-trans-(1,2)-2-((R)-3-methoxypyrrolidin-1-yl)indan-1-yloxy]phenyl}acetamide], the pIC50 is 5.00 to 6.00.

Regarding `Cc1nnc(C)n1-c1ccc(O[C@H]2c3cc(Cl)ccc3C[C@@H]2N2CCCC2)cc1` [Example 502, 4-[4-(trans-(1S,2S)-6-chloro-2-pyrrolidin-1-ylindan-1-yloxy)phenyl]-3,5-dimethyl-4H-[1,2,4]triazole], the pIC50 is greater than 6.00.

As to `CS(=O)(=O)c1ccc(O[C@@H]2c3ccccc3C[C@H]2NCC2CC2)cc1` (racemic) [Example 624, Cyclopropylmethyl-[1-(4-methanesulfonylphenoxy)indan-2-yl]amine], the pIC50 was 5.00 to 6.00.

In the case of `CS(=O)(=O)c1ccc(O[C@H]2c3ccccc3C[C@@H]2N2CCCC(NCC(F)(F)F)C2)cc1` (stereo partly drawn) [Example 219, {(R)-1-[trans-(1S,2S)-1-(4-methanesulfonylphenoxy)indan-2-yl]piperidin-3-yl}-(2,2,2-trifluoroethyl)amine], the inhibition at 10 µM lay within 20 to 50%.

With `NS(=O)(=O)c1ccc(O[C@H]2c3cc(Cl)cc(Cl)c3C[C@@H]2N2CC[C@@H](O)C2)cc1` [Example 743, 4-[trans-(1S,2S)-4,6-Dichloro-2-((R)-3-hydroxy-pyrrolidin-1-yl)-indan-1-yloxy]-benzenesulfonamide], the pIC50 was greater than 6.00.

As to `Cc1ccc(O[C@H]2c3ccccc3CC[C@@H]2N2CCC[C@H](N)C2)cc1Cl` (racemic) [Example 161, (S)-1-[rac-trans-(1,2)-1-(3-chloro-4-methylphenoxy)-1,2,3,4-tetrahydronaphthalen-2-yl]piperidin-3-ylamine], the inhibition at 10 µM lay within 20 to 50%.

With `CS(=O)(=O)c1ccccc1O[C@H]1c2cc(Cl)cc(Cl)c2C[C@@H]1N1CCNCC1` [Example 246, 1-[(1S,2S)-4,6-dichloro-1-(2-methanesulfonylphenoxy)indan-2-yl]piperazine], the pIC50 is 5.00 to 6.00.

For the molecule `Cc1cn(-c2ccc(O[C@H]3c4cc(Cl)cc(Cl)c4C[C@@H]3N3CC[C@@H](O)C3)c(F)c2)c(C)n1` [Example 727, (R)-1-{trans-(1S,2S)-4,6-Dichloro-1-[4-(2,4-dimethyl-imidazol-1-yl)-2-fluoro-phenoxy]-indan-2-yl}-pyrrolidin-3-ol], the pIC50 is greater than 6.00.

With `CC(=O)Nc1cccc(O[C@H]2c3cc(Cl)cc(Cl)c3C[C@@H]2N2CCNCC2)c1` (racemic) [Example 647, N-[3-(rac-trans-(1,2)-4,6-dichloro-2-piperazin-1-ylindan-1-yloxy)phenyl]acetamide], the pIC50 is 5.00 to 6.00.
